The values that follow come from patent US20040191842A1, “Chemopreventive and therapeutic aspects of polyphenolic compositions and assays” (Medical College of Georgia Research Institute, Inc., priority 2002, published 2004).

“And” between values parts separate entries of the source, which are not always exact repeats. Identical values can stand only once.

One data set deals with p21/WAF1. In words: Apoptosis macroarray, p21/WAF1 mRNA in NHEK. The settings on record: 100 μM EGCG. The class given is cell-based, human. As for the experimental part:
To identify additional factors those suppress EGCG -induced apoptosis and facilitate cell differentiation in NHEK, exponentially growing NHEK (Cambrex, Baltimore, Md.) were exposed to 100 μM EGCG for 0, 2, 6 and 24 hours, prior to total RNA isolation using the Qiagen RNeasy mini kit (Valencia, Calif.), which was followed by RT-PCR labeling and hybridization with the Human Apoptosis Macroarray membrane (Sigma-Genosys, The Woodlands, Tex.). Total cell lysates also were collected following a variety of EGCG treatments. The protein levels for caspase 14 and p21 were determined by immuno-blotting using antibodies specific for caspase 14 and p21 (Santa Cruz Biotechnology, Santa Cruz, Calif.).
Normal human epidermal keratinocytes (NHEK; Cambrex), and oral squamous cell carcinoma (OSC2) cells, originally from gingival tissue, were compared. Exponentially growing cells were exposed to 50 or 100 μM EGCG for 0 hours, 2 hours, 6 hours or 24 hours. Cells were harvested for total RNA, which was examined by apoptosis macroarrays (Sigma Genosys), followed by phosphorimagery and data analysis (GeneSpring). Protein production of expressed genes was confirmed by Western blotting of whole cell lysates.

Another data set relates to OSC-GFP cells and NHEK. In words: Co-culture of OSC-GFP cells and NHEK, double fluorescence. The class given is cell-based, human. The settings on record: overlay co-culture, 100 μM EGCG, 24 hour. As for the experimental part: Co-culture and GTPP treatment. Various patterns of co-culture of the tumor/normal cells were achieved by different designs. Examples include:
1. Adjacent co-culture design. OSC-GFP cells (5×10^4) were seeded in the center of a culturing device (8-well chamber-slide, Nagle Nunc International, Naperville, Ill.) through a cloning cylinder (Fisher Scientific/Scienceware, Tapered Design, 4.7×8 mm) in DMEM/F12 medium and allowed to attach for 24 hours. NHEK (10^5) in KGM-2 were then seeded in the area next to the cylinder. After 24 hours, the cylinder was removed and the medium was replaced by a 50/50 mix of KGM-2 and DMEM/F12 and the cells were allowed to grow for another 24 hours prior to treatment (FIG. 21, right).
2. Overlay design, which could be adapted for high throughput screening in 96 well plate. […]
4. Tumor cell migration was monitored by co-culturing OSC-GFP and NHEK in wells of a 24 well plate as indicated in “1”, except the NHEK cell number was doubled. After treatment, tumor cell migration into NHEK territory was recorded by fluorescent microscopy at selected time points. […]
Immunofluorescence and photography. […] Fluorescence was generated by a ZEISS AttoArc 2 source. […]
The total fluorescence intensities of images were quantified using the BIOQUANT NOVA PRIME 6.0 software (Bioquant Co., Nashville, Tenn.). […]

In the next data set the test system is transglutaminase. In words: Transglutaminase activity assay, exponentially growing keratinocytes. The data set is classed as cell-based, human. The note with it: 50 μM or 100 μM EGCG. As for the experimental part:
Transglutaminase activity assay. Normal human epidermal keratinocytes in early passages (2-3) were allowed to grow in 6-well tissue culture plates prior to EGCG exposure. The cells were scraped in homogenization buffer (0.1 M Tris/acetate, pH 8.5, containing 0.2 mM EDTA, 20 μM AEBSF, 2 μg/mL aprotinin, 2 μM leupeptin and 1 μM pepstatin A), collected by centrifugation and subjected to one freeze-thaw cycle prior to lysis by sonication. Unlysed cells were pelleted by centrifugation and aliquots of the supernatant collected for the determination of transglutaminase activity and protein concentration. Protein quantities were determined using the BioRad Protein Assay with bovine serum albumin as standard. Transglutaminase activity was measured as the incorporation of [^3 H] putrescine into dimethylated casein, as described previously (Jung et al., J Invest Dermatol, 1998; 110:318-23).

For data set [1] the following is noted: cited from earlier work.
The subject of the next data set is MCF7 cells. Kind of data set: MTT assay (mitochondrial SDH activity), MCF7 cells. The data set is classed as cell-based, human. The settings on record: 50 μM EGCG. In general terms: Formazan colour is commonly taken as a measure of viable cells.
In the next data set the test system is OSC2 cells. In words: Cell growth assay, OSC2 cells. The data set is classed as cell-based, human. The settings on record: 50 μM EGCG, day four. As for the experimental part: Cell growth assay. Cells (2×10^5) were seeded in each T25 culture flask with 5 ml DMEM/F12 medium for 48 hours. The treatments were started with 50 μM EGCG for 24 hours, 48 hours and 96 hours. At each time point, the cell numbers were counted using a hemacytometer with the presence of Trypan blue.

Description for MCF7 cells: MTT (3-(4,5-dimethylthiazol-2-yl)-2,5-diphenyl tetrazolium bromide) assay. This method detects the activity of mitochondrial succinate dehydrogenase (SDH). In a 96-well plate, 1.5×10^4 cells were seeded in each well. After variety of treatments, 100 μl of 2% MTT was added to each well and the plate was incubated at 37° C. for 30 minutes. 100 μl of 0.2 M Tris (pH 7.7) with 4% formalin was added to each well. After incubation at room temperature for 5 minutes, liquid was removed and the wells were allowed to dry. Each well was rinsed with 200 μl water followed by addition of 100 μl DMSO (6.35% 0.1 N NaOH in DMSO) to each well. The coloration was measured by a Thermo MAX microplate reader (Molecular Devices Corp. Sunnyvale, Calif. using wavelengths of 562 nm. Experiments were repeated three times with triplicate samples for each experiment.

Consider `O=C(O[C@@H]1Cc2c(O)cc(O)cc2O[C@@H]1c1cc(O)c(O)c(O)c1)c1cc(O)c(O)c(O)c1` [EGCG, (−)-epigallocatechin-3-gallate], for which the “p21 mRNA level, of untreated control” value in the data set on p21/WAF1 (2 hours) turned out to be 70.3%; in the data set on p21/WAF1 (6 hours), 50.4%. The “p21 mRNA level, of control” value with p21/WAF1 (24 hours) is given as 32.7%. Moreover, in the data set on OSC-GFP cells and NHEK, the “ratio of fluorescence intensities of rhodamine (red)/FITC (green)” value was 1.23. In the data set with transglutaminase, the “transglutaminase activity vs control” value was “significantly higher activity”. Also, the “EGCG secreted from human saliva” value in data set [1] (after two to three cups of green tea) is ≤ 50 μM and ≤ 22.9 μg/ml. Also, the “absorption through the oral mucosa” value in data set [1] (humans) was “rapidly absorbed through the oral mucosa”. Besides, the “mitochondrial SDH activities” value in the data set with MCF7 cells is on record as “significantly decreased”. Moreover, the “cell number compared to controls” value in the data set with OSC2 cells is 50%.
